{
  "source": "patent US8512940B2",
  "about": "“Method for preserving liver in a solution comprising dibutyryl cAMP” (Otsuka Pharmaceutical Factory, Inc., priority 2005, dated 2013)",
  "tested_on": "liver grafts",
  "type": "in vivo",
  "details": "content in ET-K+db-cAMP (2 mM) preservation solution, liver transplanted without final rinsing",
  "experimental": "Eight-week-old inbred male Lewis rat (SLC) was housed in a chip-bedded cage at room temperature under a 12 hr light/dark cycle and given free access to a standard chow diet and water before operation.\nGroup I: UW solution group (n=8), Group II: New ET-K solution group (n=6), Group III: modified New ET-K solution group (n=8). The liver was preserved under cooling in each preservation solution for 24 hr, and then syngeneic liver transplantation was performed. Rats were randomly assigned to each group.\nIn the UW group, the blood in the donor liver portal vein blood vessel was first replaced with 10 ml of Ringer's solution, and then the blood vessel was perfused with 10 ml of UW solution. In the New ET-K group and the modified New ET-K group, the blood in the donor liver portal vein blood vessel was directly replaced with 20 ml of each preservation solution. In all groups, the perfusion with the preservation solution was performed at a pressure of 15 cmH2O. Then, liver grafts were preserved in respective preservation solutions at 4° C. for 24 hr. […]\nIn the same manner as in Example 1, syngenic liver transplantation was performed on 8-week-old inbred male Lewis rats (SLC), and the survival rate after transplantation of the liver preserved in preservation solutions containing various concentrations of nitroglycerin (NTG) was evaluated. […]",
  "data": [
    {"smiles": "O=[N+]([O-])OCC(CO[N+](=O)[O-])O[N+](=O)[O-]", "note": "[nitroglycerin]", "values": [
      {"measurement": "nitroglycerin content at which toxicity due to nitroglycerin is hardly expressed", "result": "not more than 0.0044 mM"}
    ]}
  ]
}
